Key:
[1] = target: Glutamate receptors; NMDA/AMPA (Rattus norvegicus) (UniProt P35439+Q00959+Q00960+Q00961+Q62645+Q8VHN2+Q9R1M7+P19491+P19492+P19493+P19490); assay: Depolarizing activity relative to that of L-Glutamate (L-Glu=1) tested against mixed type(NMDA & AMPA) receptor in the newborn rat spinal motoneurone; format: protein-complex assay
[2] = target: Glutamate NMDA receptor (Rattus norvegicus) (UniProt P35439+Q00959+Q00960+Q00961+Q62645+Q8VHN2+Q9R1M7); assay: Depolarizing activity relative to that of L-Glutamate (L-Glu=1) tested against NMDA type receptor in the newborn rat spinal motoneurone; format: protein-complex assay

SMILES	Relative Potency Ratio [1]	Relative Potency Ratio [2]
O=C(O)[C@@H]1CCN[C@H]1C(=O)O	5	–
O=C(O)[C@H]1CCN[C@H]1C(=O)O	–	3
CN[C@H](CC(=O)O)C(=O)O	–	50
O=C(O)[C@H]1CCCN[C@@H]1C(=O)O (racemic)	–	20
O=C(O)[C@H]1NCC[C@H]1C(=O)O	–	0.1
O=C(O)[C@H]1NCCC[C@H]1C(=O)O	–	10
